# “And” between values parts separate entries of the source, which are not always exact repeats. Equal values may be shown once.
# Experiments:
# [1] = Solubility in the culture medium (observation); format: physicochemical; settings: high concentrations resulted in precipitation
# [2] = Viability studies (CellTiter-Blue® and CellTiter-Glo®, not told apart); settings: rainbow trout (Oncorhynchus mykiss)
# Excerpt: (§1) Subsequently, medium was replaced with exposure medium.
# RTL-W1 cells [3] = assay: as above; settings: 24 h
# Excerpt: as §1
# RTL-W1 cells [4] = assay: Intact cell MALDI-TOF mass spectrometry (IC-MS) profiles after 24 h toxin exposure; format: cell-based, rainbow trout (Oncorhynchus mykiss); settings: for number of IC-MS peaks that changed significantly through the toxin exposure: 24 h exposure
# Experimental: For IC-MS studies, cells were seeded in T25 cell culture flasks with a total amount of 1.7 × 10^6 cells. […] Toxin exposure was performed according to the viability studies.
# After 24 h of toxin exposure, cells were harvested and washed with PBS at 2000×g, 4 °C for 5 min (Eppendorf 5424, Hamburg, Germany) based on the method detailed by Dong et al.. The total number of cells was calculated using an automated cell counter (Cedex XS Analyzer, Roche Innovatis, Bielefeld, Germany). The cell pellets were stored at −20 °C until IC-MS analysis.
# According to the calculated cell number, stock solutions with 5 × 10^4 cells per μL as well as further dilutions of 2 × 10^4 and 1 × 10^4 cells per μL were prepared with PBS und stored on ice prior to IC-MS.
# Samples and matrix solutions were deposited on the MALDI-TOF MS target layer by layer and successively air dried. First, a thin layer of saturated SA in ethanol was applied to an Opti-TOF 384 well insert (Kratos Analytical, Manchester, UK), followed by 0.5 μL of the sample solution and, finally, covered with 0.5 μL of SA matrix (38 mg/ml in water/ACN/TFA 40/60/0.2 (v/v/v)) which was presented by Munteanu et al.. All sample dilutions were spotted in duplicate.
# MALDI-TOF mass spectra were obtained using an Axima Confidence mass spectrometer (Shimadzu Biotech, Manchester, UK) equipped with a 337-nm nitrogen laser. The filter for regulation of the laser firing power was set to 65. To generate representative profiles, a total of 600 laser shots were accumulated and averaged for each sample. Protein mass fingerprints were obtained in the linear, positive mode at a maximal laser repetition rate of 50 Hz within a mass range of 2000 to 20,000 Da.
# MALDI-TOF MS data processing was performed using the LaunchpadTM v. 2.9 software (Shimadzu Biotech). A set of 10 peaks that occurred in the majority of spectra and were evenly distributed across the whole mass range were used for internal calibration.
# For peak acquisition, an average smoothing method was performed with a smoothing filter width of 50 channels and a baseline filter width of 100 channels. […] For each spotted sample, a list of spectrum peaks was generated and analyzed statistically. The masses of equally treated samples were matched and means and standard deviations of ion abundances calculated. […] For principal component analysis (PCA), relative ion abundances were calculated and data normalized according to the control treatments. […]
# The 15 distinctive peaks between m/z 4562 and m/z 15,292 were analyzed for each toxin treatment: The arithmetic mean of the ion abundances was calculated from the six replicates and the direction of deviation from the control treatment was determined and tested for significance (paired two-sample t test) (Table 2).
# RTL-W1 cells [5] = tested on: RTL-W1 cells; set-up: method as in earlier work; settings: cited from earlier work
# RTL-W1 cells [6] = settings: 24 h exposure, L15/ex medium
# Experimental: (§2) In this study, RTL-W1, a liver cell line from rainbow trout (Oncorhynchus mykiss) was used. […] The cells were routinely grown according to the method detailed by Hinger et al. [23] at 20 °C in Leibovitz L15 medium (Biochrom, Berlin, Germany) supplemented with 10 % fetal calf serum (Biochrom), 5 mM L-alanyl-L-glutamin (Biochrom) and 1 % antibiotics (Gibco by Life Technologies). Cells were grown to approximately 90 % confluency before passaging for experimental use.
# (§3) Viability studies were performed in 96-well assay plates. Cells were seeded at a density of 20,000 viable cells/well and cultivated for approximately 24 h. Subsequently, medium was replaced with exposure medium. […]
# (§4) After 24 h, the cultures were assayed for viability according to the manufacturer’s instructions (Promega). After a final incubation time of 4 h for CellTiter-Blue® Viability Assay, fluorescence was recorded at 540/595 nm on Tecan infinite 200 Pro microtiter plate reader (Tecan, Männedorf, Switzerland). The integration time for luminescence detection (CellTiter-Glo® Luminescent Cell Viability Assays) on Tecan GENios Plus microtiter plate reader (Tecan) was 500 ms per well.
# (§5) Statistical analysis and EC50 calculations were performed using GraphPad Prism (Graphpad Software, San Diego, USA). […] EC50 values were calculated with a sigmoid dose–response fit and automatic outlier detection.
# RTL-W1 cells [7] = settings: 24 h exposure, L15/ex medium; remark: listed apart in the source
# Experimental: as §2, §3, §4, §5
# RTL-W1 cells [8] = tested on: RTL-W1 cells; set-up: method as in earlier work; settings: cited from earlier work; remark: listed apart in the source
# RTL-W1 = tested on: RTL-W1; set-up: method as in PMID 24416442; settings: RTL-W1, in preparation for micronucleus assays; cited from earlier work
SMILES,solubility in the culture medium [1],"viability at 24 h, 50 µM [2] [%]",concentrations with significant decrease in viability (RTL-W1 cells [3]; vs control),number of IC-MS peaks that changed significantly through the toxin exposure (RTL-W1 cells [4]),viability impairment (RTL-W1 cells [3]; 9 mg/L),"EC50 (membrane integrity), literature value (RTL-W1 cells [5]) [µg/mL]","EC50 cytotoxicity, CellTiter-Blue®, 24 h (RTL-W1 cells [6]) [µg/mL]","IC-MS profile behavior (RTL-W1 cells [4]; 2 mg/L, lowest concentration)","EC50 cytotoxicity, CellTiter-Glo®, 24 h (RTL-W1 cells [7]) [µg/mL]","EC50 (redox activity), literature value (RTL-W1 cells [8]) [µg/mL]","viability at 24 h, 150 µM [2] [%]","EC20, neutral red retention assay (RTL-W1)"
"O=c1cc(-c2ccccc2)oc2ccc3ccccc3c12 [BNF, β-naphthoflavone]",low solubility,~50,10 µM and 20 µM,nine,–,–,–,–,–,–,–,–
"O=S(=O)([O-])[O-].[Cu+2] [Copper sulfate, copper sulfate]",–,–,–,eight,roughly 50%,6.56,8.23,apoptotic behavior,10.08,3.69,–,–
"c1ccc2nc3ccccc3cc2c1 [Acridine, acridine]",–,–,–,seven,–,–,–,–,–,–,~50,40.9 mg/L and 228 μM
